Data published in ChEMBL document CHEMBL1629662, “Antimicrobial activity of prulifloxacin tested against a worldwide collection of gastroenteritis-producing pathogens, including those causing traveler's diarrhea” (2009).

Tests used:
Campylobacter jejuni = assay: Antibacterial activity against Campylobacter jejuni by broth microdilution method; format: functional
Aeromonas veronii [1] = assay: Antibacterial activity against Aeromonas veronii assessed as percent resistant isolates by broth microdilution method; format: functional
Vibrio sp. = assay: Antibacterial activity against Vibrio sp. by broth microdilution method; format: functional
Aeromonas veronii [2] = assay: Antibacterial activity against Aeromonas veronii by broth microdilution method; format: functional
Vibrio fluvialis = assay: Antibacterial activity against Vibrio fluvialis by broth microdilution method; format: functional
Salmonella enteritidis = assay: Antibacterial activity against Salmonella enterica serovar Enteritidis assessed as percent susceptible isolates by broth microdilution method; format: functional, Salmonella enterica subsp. enterica serovar Enteritidis; settings: pooled result: one value given for 5 cell lines, strains, targets or settings
Aeromonas sobria = assay: Antibacterial activity against Aeromonas sobria assessed as percent susceptible isolates by broth microdilution method; format: functional
Escherichia coli [3] = assay: Antibacterial activity against Escherichia coli assessed as percent susceptible isolates by broth microdilution method; format: functional
[4] = system: Yersinia pseudotuberculosis; assay: Antibacterial activity against Yersinia pseudotuberculosis by broth microdilution method; format: functional
[5] = Antibacterial activity against Salmonella enterica serovar Choleraesuis by broth microdilution method; format: functional, Salmonella enterica subsp. enterica serovar Choleraesuis
Shigella boydii = assay: Antibacterial activity against Shigella boydii by broth microdilution method; format: functional
Salmonella typhi [6] = assay: Antibacterial activity against Salmonella enterica serovar Typhi by broth microdilution method; format: functional, Salmonella enterica subsp. enterica serovar Typhi
Shigella dysenteriae = assay: Antibacterial activity against Shigella dysenteriae assessed as percent susceptible isolates by broth microdilution method; format: functional
Vibrio parahaemolyticus = assay: Antibacterial activity against Vibrio parahaemolyticus by broth microdilution method; format: functional
Aeromonas hydrophila = assay: Antibacterial activity against Aeromonas hydrophila by broth microdilution method; format: functional
Salmonella paratyphi = assay: Antibacterial activity against Salmonella enterica serovar Paratyphi by broth microdilution method; format: functional, Salmonella enterica subsp. enterica serovar Paratyphi A
Shigella sonnei = assay: Antibacterial activity against Shigella sonnei by broth microdilution method; format: functional
Aeromonas veronii [7] = assay: Antibacterial activity against Aeromonas veronii assessed as percent susceptible isolates by broth microdilution method; format: functional
Salmonella typhi [8] = assay: Antibacterial activity against Salmonella enterica serovar Typhi assessed as percent susceptible isolates by broth microdilution method; format: functional, Salmonella enterica subsp. enterica serovar Typhi
Aeromonas caviae = assay: Antibacterial activity against Aeromonas caviae assessed as percent susceptible isolates by broth microdilution method; format: functional
Yersinia enterocolitica [9] = assay: Antibacterial activity against Yersinia enterocolitica assessed as percent resistant isolates by broth microdilution method; format: functional
Yersinia enterocolitica [10] = assay: Antibacterial activity against Yersinia enterocolitica assessed as percent susceptible isolates by broth microdilution method; format: functional
Salmonella typhimurium = assay: Antibacterial activity against Salmonella enterica serovar Typhimurium assessed as percent resistant isolates by broth microdilution method; format: functional, Salmonella enterica subsp. enterica serovar Typhimurium; settings: pooled result: one value given for 8 cell lines, strains, targets or settings
Escherichia coli [11] = assay: Antibacterial activity against Escherichia coli assessed as percent resistant isolates by broth microdilution method; format: functional
Escherichia coli [12] = assay: Antibacterial activity against Escherichia coli by broth microdilution method; format: functional
Yersinia enterocolitica [13] = assay: Antibacterial activity against Yersinia enterocolitica by broth microdilution method; format: functional

In the case of `CCn1cc(C(=O)O)c(=O)c2ccc(C)nc21` [NALIDIXIC ACID], the MIC50 (Campylobacter jejuni) is reported as ≤ 8 µg/mL, the MIC90 (Campylobacter jejuni) is reported as > 32 µg/mL and the Activity (Aeromonas veronii [1]) is reported as 18.8%. The MIC (Vibrio sp.) was ≤ 8 µg/mL, the MIC50 (Vibrio sp.) was ≤ 8 µg/mL and the MIC90 (Vibrio sp.) was ≤ 8 µg/mL. For the same molecule, the MIC50 (Aeromonas veronii [2]) was ≤ 8 µg/mL, the MIC90 (Aeromonas veronii [2]) was > 32 µg/mL and the MIC (Vibrio fluvialis) was ≤ 8 µg/mL. The MIC50 (Vibrio fluvialis) was ≤ 8 µg/mL, the MIC90 (Vibrio fluvialis) was ≤ 8 µg/mL and the Activity (Salmonella enteritidis) was 84.2%. The Activity (Aeromonas sobria) was 81.2%, the Activity (Escherichia coli [3]) was 95% and the MIC50 [4] was ≤ 8 µg/mL. For the same molecule, the MIC90 [4] was ≤ 8 µg/mL, the MIC50 [5] was ≤ 8 µg/mL and the MIC90 [5] was > 32 µg/mL. The MIC50 (Shigella boydii) was ≤ 8 µg/mL, the MIC90 (Shigella boydii) was ≤ 8 µg/mL and the MIC50 (Salmonella typhi [6]) was ≤ 8 µg/mL. The MIC90 (Salmonella typhi [6]) was > 32 µg/mL, the Activity (Shigella dysenteriae) was 97% and the MIC (Vibrio parahaemolyticus) was ≤ 8 µg/mL. The MIC50 (Vibrio parahaemolyticus) was ≤ 8 µg/mL, the MIC90 (Vibrio parahaemolyticus) was ≤ 8 µg/mL and the MIC50 (Aeromonas hydrophila) was ≤ 8 µg/mL. For the same molecule, the MIC90 (Aeromonas hydrophila) was > 32 µg/mL, the MIC50 (Salmonella paratyphi) was ≤ 8 µg/mL and the MIC90 (Salmonella paratyphi) was > 32 µg/mL. The MIC50 (Shigella sonnei) was ≤ 8 µg/mL, the MIC90 (Shigella sonnei) was ≤ 8 µg/mL and the Activity (Aeromonas veronii [7]) was 81.2%. For the same molecule, the Activity (Salmonella typhi [8]) was 84.2%, the Activity (Aeromonas caviae) was 81.2% and the Activity (Yersinia enterocolitica [9]) was 6.5%. It also gave an Activity (Yersinia enterocolitica [10]) of 93.5%, an Activity (Salmonella typhimurium) of 15.8% and an Activity (Escherichia coli [11]) of 5%. The MIC50 (Escherichia coli [12]) was ≤ 8 µg/mL, the MIC90 (Escherichia coli [12]) was ≤ 8 µg/mL and the MIC50 (Yersinia enterocolitica [13]) was ≤ 8 µg/mL. For the same molecule, the MIC90 (Yersinia enterocolitica [13]) was ≤ 8 µg/mL.
